Patent publication US20090281054A1, “COMPOSITIONS AND METHODS COMPRISING CAPURAMYCIN ANALOGUES” (priority 2008, published 2009)
≈ marks a conversion by molar mass, not a printed value. Where two headings read alike, the source gives them in different places.

Legend:
[1] = tested on: M. kansaii (MKN; ATCC12478 & 35775); test: MIC by microdilution method in 7H9 broth; assay type: cell-based, M. kansasii; conditions: Mycobacterium kansasii, read-out: MIC
[2] = tested on: MTB in J774 cells; test: Intracellular activity of amino acid conjugates; assay type: cell-based, Mycobacterium tuberculosis; conditions: 0.125 μg/ml; day 0 RLU 775, Control day 7 31700
Procedure: The amino acid conjugates were tested at concentrations of 4 mg/mL and 8 mg/mL compared with a control and isoniazid (INH).
The intracellular activity against MTB by capuramycin amino acid derivatives was tested. Cells J774 were infected with MTB and treated for 7 days with the amino acid derivative. The mean Relative Light Unites (RLU), an estimation of bacterial viability, was measured as described in Snewin et al., Infect. Immun., 1999, 67(9), 4586-4593).

[3] = tested on: MTB inside macrophages; test: Intracellular activity of DMSO-solubilized drug in MTB infected macrophages; assay type: cell-based, Mycobacterium tuberculosis; conditions: 0.25 μg/ml (2 X MIC); Day 0 RLU 443, Control Day 7 4251
[4] = tested on: MTB; assay type: in vivo, mouse; conditions: PO, 25 mg/kg, 2 weeks treatment
[5] = tested on: MTB in macrophages; assay type: cell-based, Mycobacterium tuberculosis; conditions: INH 0.125 μg/ml; day 0 RLU 1397, Control day 7 9075
[6] = tested on: M. smegmatis; test: Synergy by checkerboard titration (microdilution); assay type: cell-based; conditions: M. smegmatis
[7] = tested on: MTB-H37Rv; test: Post-antibiotic effect (PAE); assay type: cell-based, Mycobacterium tuberculosis; conditions: 4 μg/ml, 2 hr of exposure
Procedure: PAE of SQ641. PAE of SQ641 was determined as described (Chan et al. Antimicrob. Agents Chemother., 2004, 48(1), 340-343). At the end of incubation, suspensions were diluted 1/25, and 0.1 ml was injected into each of triplicate BACTEC vials: drug dilution was 1000-fold in the BACTEC vials. Drug carryover controls (to ascertain absence of any carryover drug) consisting of the same MTB suspension as in the test and similar drug dilutions were mixed immediately, diluted 1/25, and 0.1 ml was injected into BACTEC vials. BACTEC vials were incubated at 37° C. and read in a BACTEC TB-460 reader every 24 hr until the cumulative GI in the control reached 999. PAE was calculated from the formula PAE=T−C, where T is the time required for the drug-exposed organisms to reach a cumulative GI of 100 and C is the time required for the controls to reach a cumulative GI of 100.
PAE determines the time required for the organisms to recover following exposure to an antimicrobial agent for a short duration. PAE activities of both SQ641 and INH, each at 4 μg/ml, were investigated with MTB-H37Rv. Following 2 hr of exposure to drugs, the PAE of INH was 17 hr as compared to 55 hr for SQ641. The PAE of SQ641 was over 3 times that of INH.

[8] = tested on: intracellular MTB (MTBp-SMT1) in J774A.1 macrophages; test: Intracellular activity of SQ641-TPGS micelles; assay type: cell-based, Mycobacterium tuberculosis
[9] = tested on: M. smegmatis (MSMG; MC2155); test: MIC by microdilution method in 7H9 broth; assay type: cell-based; conditions: Mycolicibacterium smegmatis, MC2155|MC^2155; MSMG MC^2155; 72 hr; read-out: MIC
[10] = tested on: M. abscessus (MAB; ATCC 700869); test: MIC by microdilution method in 7H9 broth; assay type: cell-based; conditions: Mycobacteroides abscessus, ATCC700869; MAB 700869; read-out: MIC
[11] = tested on: MTB in J774A.1 cells; test: Intracellular activity of SQ641 with efflux pump blockers; assay type: cell-based, Mycobacterium tuberculosis; conditions: INH 0.25 μg/ml
[12] = tested on: MTB-pSMT1 luciferase reporter strain; test: Activity against slowly replicating (hypoxic) MTB; assay type: cell-based; conditions: Mycobacterium tuberculosis

With `NNC(=O)c1ccncc1` [INH, isoniazid, reference compound] as the compound, how does the MIC ([1]; ATCC 12478 / ATCC 35775, MKN ATCC35775) read?
Its MIC is 1 µg/mL (≈ 7.29 µM).

What about the MIC ([1]; MKN ATCC12478) of the same compound?
The MIC was 2 µg/mL (≈ 14.6 µM).

What about the “Mean RLU on day 7” value [2] of the same compound?
Its value is 131 RLU.

What about the “Mean RLU at Day 7” value [3] of the same compound?
The value was 11 RLU.

And the “Lung CFU ± SD” value ([4]; Control 3.8 ± 1.9 × 10^8)?
Its value is 1.9 ± 0.8 × 10^7 CFU.

What about the “Lung Log CFU” value ([4]; Control 8.58) of the same compound?
Its value is 7.28 Log CFU.

And the “Mean RLU on day 7” value [5]?
The value was 434 RLU.

And the “MIC Combination” value ([6]; combination SQ641 + INH)?
Its value is 1.0 µg/mL.

What about the MIC ([6]; Mycolicibacterium smegmatis, drug alone) of the same compound?
The MIC was 8 µg/mL.

And the “PAE (post-antibiotic effect)” value [7]?
The value was 17 h.

What about the “Mean RLU at Day 7” value ([8]; Expt 1, one day drug exposure, 0.5 μg/ml, Day 0 RLU 104, CONTROL Day 7 906) of the same compound?
The value was 8 RLU.

And the “Mean RLU at Day 7” value ([8]; Expt 2, four days drug exposure, 0.25 μg/ml, Day 0 RLU 205, CONTROL Day 7 491)?
The value was 1 RLU.

And the MIC [9]?
Its MIC is 8 µg/mL (≈ 58.3 µM).

And the MIC [10]?
Its MIC is over 32 µg/mL.

What about the “Mean RLU at Day 7” value ([11]; Table 13, Day 0 RLU 425, Control Day 7 6283) of the same compound?
Its value is 127 RLU.

And the “Mean RLU at Day 7” value ([11]; Table 14, Day 0 RLU 811, Control Day 7 3004)?
Its value is 20 RLU.

What about the MIC [12] of the same compound?
Its MIC is 0.062 µg/mL (≈ 0.452 µM).

And the MIC ([12]; Hypoxic, […])?
Its MIC is 0.125 µg/mL (≈ 0.911 µM).
